Laboratory results as given in US20240025922A1, “TETRAHYDROPYRIDO[3,4-d]PYRIMIDINES AS HPK1 INHIBITORS” (Merck Patent GmbH, priority 2022, published 2024).

Each compound was assayed against full-length human HPK1 (MAP4K1) (Homo sapiens (Human), UniProt Q92918) (assay: HPK1 Kinase Assay (Biochemical Assay), ADP-Glo). Settings: GST-HPK1 3.2 nM, 10 μM ATP, MBP substrate, read-out: HPK1 enzymatic IC50.
Chain of full-length human HPK1 (MAP4K1) (Q92918 whole entry): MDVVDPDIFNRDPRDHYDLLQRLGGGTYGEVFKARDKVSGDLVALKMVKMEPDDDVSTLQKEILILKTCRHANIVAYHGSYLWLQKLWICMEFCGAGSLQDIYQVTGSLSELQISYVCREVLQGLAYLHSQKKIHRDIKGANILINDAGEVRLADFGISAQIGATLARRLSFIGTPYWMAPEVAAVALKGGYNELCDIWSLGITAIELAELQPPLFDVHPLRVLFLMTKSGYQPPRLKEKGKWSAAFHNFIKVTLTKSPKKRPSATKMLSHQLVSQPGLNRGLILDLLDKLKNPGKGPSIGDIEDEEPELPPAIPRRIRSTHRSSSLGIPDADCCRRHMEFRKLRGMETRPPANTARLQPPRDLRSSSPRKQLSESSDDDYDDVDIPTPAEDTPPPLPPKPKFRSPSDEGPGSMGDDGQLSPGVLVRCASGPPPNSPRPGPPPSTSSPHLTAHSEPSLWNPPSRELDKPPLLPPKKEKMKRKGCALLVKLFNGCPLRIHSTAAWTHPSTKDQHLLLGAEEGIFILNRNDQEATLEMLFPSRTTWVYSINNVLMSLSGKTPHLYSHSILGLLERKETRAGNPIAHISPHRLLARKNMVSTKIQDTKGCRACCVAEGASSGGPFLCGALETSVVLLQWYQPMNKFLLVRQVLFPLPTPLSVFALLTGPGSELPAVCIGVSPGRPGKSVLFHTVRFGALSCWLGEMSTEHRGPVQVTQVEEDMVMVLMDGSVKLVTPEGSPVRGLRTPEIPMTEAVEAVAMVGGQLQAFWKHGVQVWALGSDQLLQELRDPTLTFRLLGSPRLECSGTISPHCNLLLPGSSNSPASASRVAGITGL
Text: HPK1 Kinase Assay (Biochemical Assay).
A recombinant fusion protein consisting of full-length human HPK1 (MAP4K1) with an N-terminal Glutatione S-transferase (GST) tag was produced in insect cells Sf21 using the baculovirus expression system. GST-HPK1 protein was purified from cell lysates by glutathione Sepharose affinity chromatography. The assay is run in three continuous steps: 1) the HPK1 enzymatic kinase reaction, 2) an ATP depletion, and 3) the ADP detection, the steps 2 and 3 are performed with ADP-Glo™ Kinase Assay kit from Promega (V9101). Test compounds were prepared by 10-point serial dilution in dimethyl sulfoxide (DMSO) and 100 nL of each dilution was spotted onto a 384-well Optiplate (Perkin Elmer and Cat #6007299) by Labcyte Echo. 5 μL kinase reaction buffer (0.02% Brij-35, 2 mM DTT, 50 mM HEPES pH 7.5, MgCl2 10 mM, BSA 0.01% and O-glycerophosphate 12.5 mM) containing HPK1 (3.2 nM) enzyme was transferred to each well and incubated for 15 minutes at room temperature at 60% humidity. The enzymatic reaction was started by adding 5 μl of Start-Mix (10 μM ATP and 3.235 μM MBP). After 120 minutes, the reaction was stopped by adding 5 μL of ADP-Glo reagent (Promega, V9101) and incubating for 40 min. in the dark at 23° C. To determine the level of ADP, 10 μl ADP-Glo Detection solution was added and incubated for 1 hour at 23° C. in the dark. The plate was transferred to a Perkin Elmer EnVision (2104 Multilabel Reader) for luminescence detection and percent inhibition activity and IC50 value were determined using Genedata Screener.
In the case of Cc1cc(Nc2ncc3c(n2)CN(c2cnc4c(c2C)NCCO4)CC3)ccc1CC#N [Example 149, 2-{2-methyl-4-[(7-{8-methyl-1H,2H,3H-pyrido[2,3-b][1,4]oxazin-7-yl}-5H,6H,7H,8H-pyrido[3,4-d]pyrimidin-2-yl)amino]phenyl}acetonitrile], the IC50 is reported as < 0.1 µM. In the case of Cc1cc(Nc2ncc3c(n2)CN(c2cnc4c(c2Cl)NCCO4)CC3)ccc1CS(C)(=O)=O [Example 177, 7-{8-chloro-1H,2H,3H-pyrido[2,3-b][1,4]oxazin-7-yl}-N-[4-(methanesulfonylmethyl)-3-methylphenyl]-5H,6H,7H,8H-pyrido[3,4-d]pyrimidin-2-amine], the IC50 is reported as < 0.1 µM. For Cc1c(N2CCc3cnc(Nc4ccc(CN5CCN(C)CC5)cc4)nc3C2)cnc2c1NCCO2 [Example 64, 7-{8-methyl-1H,2H,3H-pyrido[2,3-b][1,4]oxazin-7-yl}-N-{4-[(4-methylpiperazin-1-yl)methyl]phenyl}-5H,6H,7H,8H-pyrido[3,4-d]pyrimidin-2-amine], the IC50 was < 0.1 µM. For Cc1cnsc1N1CCc2cnc(Nc3cc4n(n3)CC(=O)N(C(C)C)CC4)nc2C1 [Example 86, 2-{[7-(4-methyl-1,2-thiazol-5-yl)-5H,6H,7H,8H-pyrido[3,4-d]pyrimidin-2-yl]amino}-6-(propan-2-yl)-4H,5H,6H,7H,8H-pyrazolo[1,5-d][1,4]diazepin-7-one; trifluoroacetic acid], the IC50 was > 1 µM. CN1CCc2ncc(Nc3ncc4c(n3)CN(c3ccccn3)CC4)cc2C1 [Example 129, 6-methyl-N-[7-(pyridin-2-yl)-5H,6H,7H,8H-pyrido[3,4-d]pyrimidin-2-yl]-5,6,7,8-tetrahydro-1,6-naphthyridin-3-amine] showed an IC50 of 0.1 to 1 µM. Cc1c(N2CCc3cnc(Nc4ccc5c(c4)CCN(C)CC5)nc3C2)cnc2c1NCCO2 [Example 62, 3-methyl-N-(7-{8-methyl-1H,2H,3H-pyrido[2,3-b][1,4]oxazin-7-yl}-5H,6H,7H,8H-pyrido[3,4-d]pyrimidin-2-yl)-2,3,4,5-tetrahydro-1H-3-benzazepin-7-amine] was tested, and the IC50 was < 0.1 µM. In the case of Cc1c(N2CCc3cnc(Nc4cnc5c(c4)CN(C)CC5)nc3C2)cnc2c1OCCO2 [Example 95, 7-(8-methyl-2,3-dihydro-[1,4]dioxino[2,3-b]pyridin-7-yl)-N-(6-methyl-5,6,7,8-tetrahydro-1,6-naphthyridin-3-yl)-5,6,7,8-tetrahydropyrido[3,4-d]pyrimidin-2-amine], the IC50 is reported as < 0.1 µM. With CS(=O)(=O)Cc1ccc(Nc2ncc3c(n2)CN(c2cnc4cnccn24)CC3)cc1 [Example 136, 7-{imidazo[1,2-a]pyrazin-3-yl}-N-[4-(methanesulfonylmethyl)phenyl]-5H,6H,7H,8H-pyrido[3,4-d]pyrimidin-2-amine] the IC50 was > 1 µM. For COCCOCCS(=O)(=O)Cc1ccc(Nc2ncc3c(n2)CN(c2cnc4c(c2C)NCCO4)CC3)cc1 [Example 137, N-(4-{[2-(2-methoxyethoxy)ethanesulfonyl]methyl}phenyl)-7-{8-methyl-1H,2H,3H-pyrido[2,3-b][1,4]oxazin-7-yl}-5H,6H,7H,8H-pyrido[3,4-d]pyrimidin-2-amine], the IC50 was < 0.1 µM. Cc1c(N2CCc3cnc(Nc4ccnc(N5CCOCC5)c4)cc3C2)cnc2c1NCCO2 [Example 54, 6-(8-methyl-2,3-dihydro-1H-pyrido[2,3-b][1,4]oxazin-7-yl)-N-(2-morpholinopyridin-4-yl)-5,6,7,8-tetrahydro-2,6-naphthyridin-3-amine] was tested, and the IC50 was < 0.1 µM. With Clc1c(N2CCc3cnc(Nc4ccc(-c5nnc(C6CC6)o5)cc4)nc3C2)cnc2c1NCCO2 [Example 159, 7-{8-chloro-1H,2H,3H-pyrido[2,3-b][1,4]oxazin-7-yl}-N-[4-(5-cyclopropyl-1,3,4-oxadiazol-2-yl)phenyl]-5H,6H,7H,8H-pyrido[3,4-d]pyrimidin-2-amine] the IC50 was < 0.1 µM. In the case of Cn1ccc2c(N3CCc4cnc(Nc5ccc(CS(C)(=O)=O)cc5)nc4C3)ccnc21 [Example 146, N-[4-(methanesulfonylmethyl)phenyl]-7-{1-methyl-1H-pyrrolo[2,3-b]pyridin-4-yl}-5H,6H,7H,8H-pyrido[3,4-d]pyrimidin-2-amine], the IC50 is reported as > 1 µM.
